Data from US20060057636A1 (priority 2002, published 2006).

What was measured:
Balb/C mice = conditions: in vivo, sc
NMRI mice = conditions: mouse, in vivo
recombinant bovine PrP = conditions: in vivo

CGGLGGYMLGSAMSRPLIH [PrP peptide 3]
mean end-point titre, mouse no. 1 (Balb/C mice): 13.5000 | mean end-point titre, mouse no. 2 (Balb/C mice): 13.500 | mean end-point titre, mouse no. 3 (Balb/C mice): 13.500 | mean end-point titre, mouse no. 4 (Balb/C mice): 40.500

CGGRESQAYYQRGAS [PrP peptide 4]
titres in NMRI mice compared with Balb/C (NMRI mice): the same or even higher titres | mean end-point titre, mouse no. 1 (Balb/C mice): 4.500 | mean end-point titre, mouse no. 2 (Balb/C mice): 13.500 | mean end-point titre, mouse no. 3 (Balb/C mice): 13.500 | mean end-point titre, mouse no. 4 (Balb/C mice): 40.500

CGQGGTHGQWNKP [PrP peptide 1]
titres in NMRI mice compared with Balb/C (NMRI mice): the same or even higher titres | mean end-point titre, mouse no. 1 (Balb/C mice): 40.500 | mean end-point titre, mouse no. 2 (Balb/C mice): 40.500 | mean end-point titre, mouse no. 3 (Balb/C mice): 40.500 | mean end-point titre, mouse no. 4 (Balb/C mice): 40.500

CGQWNKPSKPKTN [PrP peptide 2]
mean end-point titre, mouse no. 1 (Balb/C mice): 121.500 | mean end-point titre, mouse no. 2 (Balb/C mice): 40.500 | mean end-point titre, mouse no. 3 (Balb/C mice): 13.500 | mean end-point titre, mouse no. 4 (Balb/C mice): 13.500

CGSDYEDRY [PrP peptide 5]
mean end-point titre, mouse no. 1 (Balb/C mice): 121.500 | mean end-point titre, mouse no. 2 (Balb/C mice): 40.500 | mean end-point titre, mouse no. 3 (Balb/C mice): 40.500 | mean end-point titre, mouse no. 4 (Balb/C mice): 40.500 | production of high-titered, PrP-reactive antibodies (recombinant bovine PrP): all groups except the peptide 5 group

CTQYQRESQAYYQRG [PrP peptide 7]
mean end-point titre, mouse no. 1 (Balb/C mice): 121.500 | mean end-point titre, mouse no. 2 (Balb/C mice): 13.4500 | mean end-point titre, mouse no. 3 (Balb/C mice): 40.500 | mean end-point titre, mouse no. 4 (Balb/C mice): 40.500

CYYRPVDQYS [PrP peptide 6]
titres in NMRI mice compared with Balb/C (NMRI mice): the same or even higher titres | mean end-point titre, mouse no. 1 (Balb/C mice): 13.500 | mean end-point titre, mouse no. 2 (Balb/C mice): 500 | mean end-point titre, mouse no. 3 (Balb/C mice): 13.500 | mean end-point titre, mouse no. 4 (Balb/C mice): 1.500
